Laboratory results reported in patent US8921398B2 (Boehringer Ingelheim International GmbH, priority 2011, dated 2014).

The molecules below were run against T1, mutant form of the human GPR119 receptor (Homo sapiens, UniProt Q8TDV5, S329A/T327A) (assay: LANCE cAMP-384 assay in HEK293 cells stably expressing a mutant form of the human GPR119 receptor). Settings: cAMP accumulation, GPR119 stable HEK293 cells, LANCE kit, 20 min at 37° C.
T1 construct: expressed in transfected cells
T1 sequence (Q8TDV5 with tags, fused parts or gaps T327A/S329A): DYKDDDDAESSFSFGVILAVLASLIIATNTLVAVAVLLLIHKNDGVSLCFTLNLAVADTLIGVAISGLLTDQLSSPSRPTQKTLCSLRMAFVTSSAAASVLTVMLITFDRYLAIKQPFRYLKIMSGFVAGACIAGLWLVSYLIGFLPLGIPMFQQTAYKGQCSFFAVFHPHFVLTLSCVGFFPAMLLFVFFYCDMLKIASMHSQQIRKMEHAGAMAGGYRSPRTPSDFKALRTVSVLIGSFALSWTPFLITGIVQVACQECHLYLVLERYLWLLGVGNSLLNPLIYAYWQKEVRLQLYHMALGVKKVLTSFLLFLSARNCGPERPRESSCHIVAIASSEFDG
Type: cell-based
Protocol: Quantitative detection of cAMP accumulation from cells expressing human GPR119 receptor is achieved using Perkin Elmer's LANCE cAMP-384 Kit (Cat#AD0264) according to the manufacturer's protocol. Briefly, HEK293 cells stably expressing a mutant form of the human GPR119 receptor as assay tool (Methionine 1 replaced with the amino acid sequence […], and T327 & S329 changed to alanines; SEQ ID No. 1) are grown to 50-70% confluency in cell culture media (DMEM, 10% heat inactivated Fetal Bovine Serum, 50 I.U./mL penicillin, 50 μg/mL streptomycin, 10 mM HEPES, 20 μg/mL G418 Sulfate). On the day of the assay, GPR119 stable HEK293 cells are lifted from the tissue culture plate and 1000 cells/well are incubated along with various concentrations of test compounds for 20 min at 37° C. Detection Buffer (50 mM HEPES, 10 mM calcium chloride, 0.35% Triton X-100, 1 mg/mL BSA) containing cAMP-specific antibody is then added to all wells and allowed to equilibrate in the dark for 10 minutes at room temperature. Upon equilibration, Detection Buffer containing europium-labeled cAMP tracer complex is added to all wells and allowed to react for 1 hour at room temperature. After 1 hour, bound europium-labeled cAMP tracer is measured using a Perkin Elmer Envision plate reader. The quantity of cAMP generated in each well is derived from a standard curve. EC50 is determined using nonlinear regression analysis of the cAMP values over a range of agonist concentration (12 points spanning the range from 30 μM to 100 pM).

Row | Structure (SMILES) | EC50
1 | Cc1ncnn1-c1ccc(C(=O)N(C2CC2)[C@H]2CCN(c3ccc(C(F)(F)F)cn3)C[C@H]2F)cn1 (single isomer, unassigned) [Example 69] | 496 nM
2 | O=C(c1cnc(-n2cncn2)cn1)N(C1CC1)[C@H]1CCN(c2ccc(C(F)(F)F)cn2)C[C@H]1F (single isomer, unassigned) [Example 71] | 94 nM
3 | CCc1cnc(N2CC[C@@H](N(C(=O)c3cnc(-n4cncn4)nc3)C3CC3)[C@@H](F)C2)nc1 (single isomer, unassigned) [Example 91] | 202 nM
4 | Cc1nccn1-c1ccc(C(=O)N(C2CC2)[C@@H]2CCN(c3ccc(C(F)(F)F)cn3)C[C@@H]2F)cn1 (single isomer, unassigned) [Example 81] | 34 nM
5 | CCc1cnc(N2CCC(N(C(=O)c3cn(-c4ccc(C#N)cn4)cn3)C3CC3)CC2)nc1 [Example 104] | 61 nM
6 | Cc1nccn1-c1ccc(C(=O)N(C2CC2)C2CCN(c3nc(C(C)C)no3)CC2)cn1 [Example 51] | 593 nM
7 | Cc1nccn1-c1ccc(C(=O)N(C2CC2)C2CCN(c3ncc(C(F)(F)F)cc3F)CC2)cn1 [Example 43] | 73 nM
8 | O=C(c1cnc(-n2cncn2)nc1)N(C1CC1)C1CCN(c2ncc(C(F)(F)F)cc2F)CC1 [Example 47] | 125 nM
9 | Cc1nnnn1-c1ccc(C(=O)N(C2CC2)[C@@H]2CCN(c3ccc(C(F)(F)F)cn3)C[C@@H]2F)cn1 (single isomer, unassigned) [Example 77] | 13 nM
10 | Cc1ncn(-c2cnc(C(=O)N(C3CC3)[C@@H]3CCN(c4ccc(C(F)(F)F)cn4)C[C@@H]3F)cn2)n1 (single isomer, unassigned) [Example 82] | 35 nM
11 | CCc1cnc(N2CCC(N(C(=O)c3cnc(-n4cncn4)cn3)C3CC3)CC2)nc1 [Example 60] | 29 nM
12 | CCc1cnc(N2CC[C@@H](N(C(=O)c3cn(-c4ccc(C#N)cc4F)c(C)n3)C3CC3)[C@@H](F)C2)nc1 (single isomer, unassigned) [Example 112] | 789 nM
13 | CCc1cnc(N2CC[C@@H](N(C(=O)c3cn(-c4ccc(C#N)cn4)c(C)n3)C3CC3)[C@@H](F)C2)nc1 (single isomer, unassigned) [Example 110] | 363 nM
14 | Cc1nccn1-c1cnc(C(=O)N(C2CC2)C2CCN(c3nc(C(C)C)no3)CC2)cn1 [Example 53] | 808 nM
15 | Cc1ncnn1-c1ccc(C(=O)N(C2CC2)C2CCN(c3nc(C(C)C)no3)CC2)cn1 [Example 52] | 231 nM
16 | Cc1ncn(-c2cnc(C(=O)N(C3CC3)C3CCN(c4nc(C(C)C)no4)CC3)cn2)n1 [Example 56] | 473 nM
17 | CCc1cnc(N2CC[C@@H](N(C(=O)c3ccc(-n4ncnc4C)nc3)C3CC3)[C@@H](F)C2)nc1 (single isomer, unassigned) [Example 84] | 15 nM

The molecules below were run against T2, human GPR119 (Homo sapiens, UniProt Q8TDV5) (assay: AlphaScreen cAMP assay in MIN6 cells stably transfected with human GPR119). Settings: Min-6/hGPR119 cells, 45 minutes incubation at room temperature.
T2 construct: expression vector for human GPR119 cDNA (Acc. No. NP_848566); expressed in transfected cells
T2 sequence (Q8TDV5 1-335): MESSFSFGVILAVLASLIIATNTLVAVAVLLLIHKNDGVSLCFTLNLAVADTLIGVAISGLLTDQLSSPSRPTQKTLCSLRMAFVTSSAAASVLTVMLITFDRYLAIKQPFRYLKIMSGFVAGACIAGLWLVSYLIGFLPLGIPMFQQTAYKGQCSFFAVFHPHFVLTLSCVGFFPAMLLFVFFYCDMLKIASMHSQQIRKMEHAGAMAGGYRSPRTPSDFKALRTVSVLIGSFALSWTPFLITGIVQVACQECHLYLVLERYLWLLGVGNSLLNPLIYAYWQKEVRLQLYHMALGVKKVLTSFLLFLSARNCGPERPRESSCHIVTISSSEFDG
Type: cell-based
Protocol: The compounds of formula I according to the invention modulate the activity of the G-protein-coupled receptor GPR119. The effect of the compounds on the activation of GPR119 and on the stimulation of intracellular cAMP concentration is determined using the AlphaScreen cAMP Assay Kit (Cat.No.#6760625R) made by PerkinElmer.
MIN6 cells [Miyazaki J et al. Endocrinology. 1990 July; 127(1):126-32] are stably transfected with an expression vector for human GPR119 cDNA (Acc. No. NP_848566). Min-6/hGPR119 cells are cultured in DMEM, 10% FBS, 50 μM β-mercaptoethanol, 0.3 mg/mL Geniticin, 2 mM GlutaMAX at 37° C. 5% CO2. For the assay, the cells are seeded in Optiplates (white, 384-well, 160W-barcoded, TC, sterile with lid, Cat.No.#6007688 (Perkin Elmer); 10000 cells/well; 50 μl). The plates covered with lids are then incubated for 24 hours at 37° C./5% CO2. After the medium is aspirated from the wells completely, 10 μl of the test compound are added, the compounds are diluted using stimulating buffer (140 mM NaCl, 3.6 mM KCl, 0.5 mM NaH2PO4, 0.5 mM MgSO4, 1.5 mM CaCl2, 10 mM Hepes, 5 mM NaHCO3; pH 7.4. 0.5 mM IBMX and 0.1% BSA, the final DMSO concentration is 1%). After 45 minutes incubation at room temperature (approx. 20° C.), the cAMP concentrations are determined using the AlphaScreen cAMP Assay Kit (Cat.No.#6760625R from PerkinElmer).

Row | EC50 | Structure (SMILES)
18 | 156 nM | CCc1nccn1-c1ncc(C(=O)N(C2CC2)C2CCN(c3noc(C4CC4)n3)CC2)cn1 [Example 26, 2-(2-Ethyl-imidazol-1-yl)-pyrimidine-5-carboxylic acid cyclopropyl-[1-(5-cyclopropyl-[1,2,4]oxadiazol-3-yl)-piperidin-4-yl]-amide]
19 | 89 nM | CCCc1noc(N2CCC(N(C(=O)c3ccc(-c4cnco4)nc3)C3CC3)CC2)n1 [Example 40, N-Cyclopropyl-6-oxazol-5-yl-N-[1-(3-propyl-[1,2,4]oxadiazol-5-yl)-piperidin-4-yl]-nicotinamide]
20 | 6 nM | CC(C)(C)c1noc(N2CCC(N(C(=O)c3cc(-c4ccc(C#N)cc4F)no3)C3CC3)CC2)n1 [Example 31, 3-(4-Cyano-2-fluoro-phenyl)-isoxazole-5-carboxylic acid [1-(3-tert-butyl-[1,2,4]oxadiazol-5-yl)-piperidin-4-yl]-cyclopropyl-amide]
21 | 60 nM | CCc1cnc(N2CCC(N(C(=O)c3cnc(-n4ccnc4CC)nc3)C3CC3)CC2)nc1 [Example 15, 2-(2-Ethyl-imidazol-1-yl)-pyrimidine-5-carboxylic acid cyclopropyl-[1-(5-ethyl-pyrimidin-2-yl)-piperidin-4-yl]-amide]
22 | 35 nM | CCc1cnc(N2CCC(N(C(=O)c3cnc(-n4ccnc4)nc3)C3CC3)CC2)nc1 [Example 12, 2-Imidazol-1-yl-pyrimidine-5-carboxylic acid cyclopropyl-[1-(5-ethyl-pyrimidin-2-yl)-piperidin-4-yl]-amide]
23 | 59 nM | CCc1cnc(N2CCC(N(C(=O)c3ccc(-c4cnco4)nc3)C3CC3)CC2)cn1 [Example 37, N-Cyclopropyl-N-[1-(5-ethyl-pyrazin-2-yl)-piperidin-4-yl]-6-oxazol-5-yl-nicotinamide]
24 | 5 nM | CC(C)(C)c1noc(N2CCC(N(C(=O)c3cc(-c4ccc(C#N)cc4F)on3)C3CC3)CC2)n1 [Example 30, 5-(4-Cyano-2-fluoro-phenyl)-isoxazole-3-carboxylic acid [1-(3-tert-butyl-[1,2,4]oxadiazol-5-yl)-piperidin-4-yl]-cyclopropyl-amide]
25 | 487 nM | CCOc1ccc(-c2ncc(C(=O)N(C3CC3)C3CCN(c4ncc(CC)cn4)CC3)cn2)cn1 [Example 3, 2-(6-Ethoxy-pyridin-3-yl)-pyrimidine-5-carboxylic acid cyclopropyl-[1-(5-ethyl-pyrimidin-2-yl)-piperidin-4-yl]-amide]
26 | 96 nM | CC(C)c1noc(N2CCC(N(C(=O)c3ccc(-c4ccc(S(C)(=O)=O)cc4)nc3)C3CC3)CC2)n1 [Example 6, N-Cyclopropyl-N-[1-(3-isopropyl-[1,2,4]oxadiazol-5-yl)-piperidin-4-yl]-6-(4-methanesulfonyl-phenyl)-nicotinamide]
27 | 7 nM | CCCc1noc(N2CCC(N(C(=O)c3noc(-c4ccc(C#N)cc4F)n3)C3CC3)CC2)n1 [Example 18, 5-(4-Cyano-2-fluoro-phenyl)-[1,2,4]oxadiazole-3-carboxylic acid cyclopropyl-[1-(3-propyl-[1,2,4]oxadiazol-5-yl)-piperidin-4-yl]-amide]
28 | 6 nM | Cc1nccn1-c1ncc(C(=O)N(C2CC2)C2CCN(c3ncc(C(F)(F)F)cc3F)CC2)cn1 [Example 27, 2-(2-Methyl-imidazol-1-yl)-pyrimidine-5-carboxylic acid cyclopropyl-(3′-fluoro-5′-trifluoromethyl-3,4,5,6-tetrahydro-2H-[1,2′]bipyridinyl-4-yl)-amide]
29 | 63 nM | CCc1cnc(N2CCC(N(C(=O)c3cnc(-c4cnco4)cn3)C3CC3)CC2)nc1 [Example 38, 5-Oxazol-5-yl-pyrazine-2-carboxylic acid cyclopropyl-[1-(5-ethyl-pyrimidin-2-yl)-piperidin-4-yl]-amide]
30 | 964 nM | CCc1cnc(N2CCC(N(C(=O)c3ccc(-n4ccnc4)nn3)C3CC3)CC2)nc1 [Example 17, 6-Imidazol-1-yl-pyridazine-3-carboxylic acid cyclopropyl-[1-(5-ethyl-pyrimidin-2-yl)-piperidin-4-yl]-amide]
